Entries after “also recorded” stand apart in the source; their conditions may differ.
Legend:
Type in all cases: cell-based, human
phospho-Erk MAPK = test: Growth factor stimulated phospho-Erk MAPK, Western blot; conditions: for phospho-Erk MAPK level, short-term stimulation: 0-30 minutes stimulation; for phospho-Erk MAPK level, 24 hours: 24 hours of AD7c-NTP induction and growth factor stimulation
Excerpt: (§1) Standard Western blot assays wew used to measure cellular levels of p53, Bcl-2, p21/Waf1, phospho-tau, tau, c-fos, NTP, and activated (phosphorylated) forms of Erk mitogen activated protein (MAP) kinase, amino-terminal c-jun-activated kinase (pJNK), and p38/HOG1. Immunoprecipitation followed by Western blot analysis was used to measure p85 subunit associated with IRS1. For Western blot analysis of p53 Bcl-2, phospho-tau, tau, c-fos, and NTP, the cells were lysed in ice cold radioimmunoprecipitation assay (RIPA) buffer supplemented with protease and phosphatase inhibitors. For the immunoprecipitation studies, Western blot analysis of phospho-Erk, pJNK, and p38, and the PI3 kinase assays, the cells were harvested in Triton lysis buffer supplemented with protease and phosphatase inhibitors. Protein concentrations were measured using the BCA assay (Pierce, Rockford, Ill.). Samples containing 60 μg of protein were fractionated by sodium dodecyl sulfate polyacrylamide gel electrophoresis (SDS-PAGE), then transferred to PVDF membranes, and analyzed by Western immunoblotting. Immunoreactivity was detected with horseradish peroxidase conjugated secondary IgG and PicoWest enhanced chemiluminescence reagents (Pierce Chemical Company, Rockford, Ill.). CAT activity was measured using known methods.
(§2) The potential mechanisms by which the differential effects of insulin, IGF1 and PDGF might occur were explored by examining pathways, which mediate PNET2 neuronal apoptosis and neuritic sprouting. […] Western blot analysis was performed with cell lysates obtained from cultures stimulated with insulin, IGF1, or PDGF for 0-30 minutes or 24 hours with equivalent protein loading (60 μg/sample). The membranes were probed using antibodies to Erk, phospho-Erk, Jun, and phospho-JNK. […] In contrast, after 24 hours of AD7c-NTP gene induction and growth factor stimulation, high levels of phospho-Erk MAPK were detected in the IGF-1 and PDGF-stimulated cultures, but not in the serum-starved or insulin-stimulated cultures. […] In contrast, the levels of c-fos transcription factor were equally expressed after 24 hours IPTG induction of AD7c-NTP expression and either serum starvation or stimulation with insulin, IGF1 or PDGF.

[1] = tested on: PNET2 cells induced to express AD7c-NTP; test: Crystal violet viability assay; conditions: 3 mM IPTG-induced AD7c-NTP; relative to un-induced FCS-stimulated and IPTG-induced NGF or PDGF stimulated cultures
Method: (§3) To examine the effects of different growth factors on AD7c-NTP expression (and over-expression), the cells were serum-starved for 16 hours, after which IPTG (1-5 mM) was added to the medium. Four hours later, the cells were stimulated with insulin (50 nM), IGF-1 (5 ng/ml), NGF ([…]), or platelet-derived growth factor (PDGF; 5 ng/ml) for 24-72 hours. The cells were analyzed for morphological changes, viability, AD7c-NTP immunoreactivity, and expression of pro-apoptosis genes, survival genes, and phospho-tau.
Viability was measured by a standard crystal violet assay. Crystal violet dye labels only viable cells. The assays were performed with cells seeded into 96-well plates at a density of 2×10^4 cells/well. The absorbances were measured using a Spectracount plate reader (Packard, Meriden, Conn.). The crystal violet absorbances increased linearly with cell density between 10^4 and 5×10^5 cells/well.
Cells were serum-starved for 24 hours. However, since several hours of IPTG stimulation were required to induce AD7c-NTP gene expression or CAT activity, IPTG (3 mM) was added to the cultures after 16 hours of serum-starvation, i.e. 8 hours prior to growth factor stimulation. […]
Increased cell loss associated with insulin-stimulation and AD7c-NTP over-expression Cell viability was quantified using the microculture Crystal violet assay with cells seeded into 96-well plates. […]

p21/Waf1 = p21/Waf1 expression, Western blot / MICE assay; conditions: PNET2 cells induced to express AD7c-NTP, growth factor stimulated
Excerpt: as §1, with “For the immunoprecipitation studies, Western blot analysis of phospho-Erk, pJNK, and p38, and the PI3 kinase assays, the cells were harvested in Triton lysis buffer supplemented with protease and phosphatase inhibitors.” left out
(§4) The MICE assay is known in the art (e.g., as described by de la Monte et al., 1999, Biotechniques 26:107301076). […] Immunoreactivity was detected using horseradish peroxidase conjugated secondary antibody (Pierce, Rockford, Ill.) and the TMB soluble peroxidase substrate (Pierce, Rockford, Ill.). […]

p25 = p25 expression, Western blot / MICE assay; conditions: PNET2 cells induced to express AD7c-NTP
Excerpt: as §1, with “For the immunoprecipitation studies, Western blot analysis of phospho-Erk, pJNK, and p38, and the PI3 kinase assays, the cells were harvested in Triton lysis buffer supplemented with protease and phosphatase inhibitors.” left out
as §4

[2] = tested on: PNET2 cells induced to express AD7c-NTP; test: Cell morphology by phase contrast microscopy; conditions: IPTG-induced AD7c-NTP; insulin 50 nM, IGF-1 5 ng/ml, NGF 2.5 ng/ml, PDGF 5 ng/ml; 24-48 hours
Method: as §3
Cells were serum-starved for 24 hours. However, since several hours of IPTG stimulation were required to induce AD7c-NTP gene expression or CAT activity, IPTG (3 mM) was added to the cultures after 16 hours of serum-starvation, i.e. 8 hours prior to growth factor stimulation. The cells were stimulated with insulin (50 nM), IGF-1 (5 ng/ml), NGF (2.5 ng/ml), or PDGF (5 ng/ml) and examined by phase contrast microscopy 24-48 hours later. PNET2 cells could be maintained in serum-free medium for 5 to 7 days with insulin, IGF-1, NGF, or PDGF as the only growth stimulus. In addition, each of these growth factors supports DNA synthesis and promotes modest outgrowth of multipolar neurites in PNET2 cells.

phospho-tau = phospho-tau expression, Western blot / MICE assay; conditions: PNET2 cells induced to express AD7c-NTP; relative to PDGF-stimulated cultures
Excerpt: as §1, with “For the immunoprecipitation studies, Western blot analysis of phospho-Erk, pJNK, and p38, and the PI3 kinase assays, the cells were harvested in Triton lysis buffer supplemented with protease and phosphatase inhibitors.” left out
as §4

[3] = tested on: nitric oxide synthase-3 (NOS-3); test: NOS-3 expression, Western blot; conditions: PNET2 cells induced to express AD7c-NTP; relative to PDGF-stimulated cultures
Excerpt: as §1, with “methods. […]” for “methods.”

Bcl-2 = Bcl-2 expression, Western blot / MICE assay; conditions: PNET2 cells induced to express AD7c-NTP, growth factor stimulated
Excerpt: as §1
(§5) The MICE assay is known in the art (e.g., as described by de la Monte et al., 1999, Biotechniques 26:107301076). The assay is a rapid and sensitive method for quantifying immunoreactivity in 96-well micro-cultures and combines the advantages of the enzyme-linked immunosorbant assay with immunocytochemical staining to permit sensitive in situ quantification of protein expression with values normalized to cell density. […] Immunoreactivity was detected using horseradish peroxidase conjugated secondary antibody (Pierce, Rockford, Ill.) and the TMB soluble peroxidase substrate (Pierce, Rockford, Ill.). Absorbances were measured at 450 nm using a Spectracount plate reader. […]

phospho-JNK = test: Growth factor stimulated phospho-JNK, Western blot; conditions: for phospho-JNK level, short-term stimulation: 5-30 min stimulation
Excerpt: as §1, §2

p53 = p53 expression, Western blot / MICE assay; conditions: PNET2 cells induced to express AD7c-NTP, growth factor stimulated
Excerpt: as §1, §5

[4] = tested on: PY-PI3 kinase (total PI3 kinase); test: PI3 kinase activity in anti-phospho-tyrosine (PY) immunoprecipitates
Method: (§6) The cells were harvested in Triton lysis buffer supplemented with protease and phosphatase inhibitors. Total PI3K was immunoprecipitated from 500 μg protein in cell lysates using rabbit polyclonal antibodies to the p85 subunit of PI3K and Protein A sepharose. The immunoprecipitants were incubated for 5 minutes at room temperature with 10 μg of sonicated phosphatidylinositol in HEPES buffer (200 mM HEPES, 4 mM EGTA, 4 mM sodium phosphate, pH 7.0). Reactions were initiated by the addition of 5 μCi [α^32p] ATP, 15 mM MgCl2, 150 mM ATP, 1.5 mM Tris-HCl, pH 7.4, and 15 mM NaCl. After 10 minutes incubation at 30° C., the reactions were stopped by the addition of HCl to a final concentration of 1.2 N, followed by chloroform/methanol extraction. Phosphorylated lipids were analyzed by thin layer chromatography using gel plates pre-coated with 1% oxalate (Merck, White House Station, N.J.). PI3K activity was measured with a phosphorimager.
PI3 kinase is an important mediator of neuronal survival. The pro-survival effects of PI3K are mediated through activation of Akt (protein kinase B) and phosphorylation of Bad to render it inactivated. Inhibition of PI3 kinase activity is associated with PNET2 cell apoptosis. Therefore, experiments were carried out to determine if growth factor stimulated PI3 kinase activity was inhibited in insulin or IGF-1-stimulated cultures. Such inhibition has been observed following chronic ethanol exposure. Since insulin and IGF-1 can activate PI3 kinase through the insulin-receptor substrate-1 (IRS-1) or through IRS-1-independent pathways, both IRS1-associated PI3 kinase and total PI3 kinase activities were measured. These studies were conducted using insulin or PDGF stimulated cultures in which AD7c-NTP gene expression was induced by 3 mM IPTG stimulation. […] Levels of PI3 kinase activity were measured in anti-phospho-tyrosine (PY) immunoprecipitates. […] Similarly, PI3 kinase activity was readily detected in the PY immunoprecipitates prepared with cells stimulated with insulin or PDGF.

[5] = tested on: IRS-1-associated PI3 kinase; test: IRS-1-associated PI3 kinase activity; conditions: 3 mM IPTG-induced cultures, 30 minutes of stimulation
Method: as §6, with “After 10 minutes incubation at 30° C., the reactions were stopped by the addition of HCl to a final concentration of 1.2 N, followed by chloroform/methanol extraction.” left out
PI3 kinase is an important mediator of neuronal survival. […] Since insulin and IGF-1 can activate PI3 kinase through the insulin-receptor substrate-1 (IRS-1) or through IRS-1-independent pathways, both IRS1-associated PI3 kinase and total PI3 kinase activities were measured. […] Levels of PI3 kinase activity were measured in anti-phospho-tyrosine (PY) immunoprecipitates. […] Similarly, PI3 kinase activity was readily detected in the PY immunoprecipitates prepared with cells stimulated with insulin or PDGF.

IGF-1: Recombinant human IGF1 purchased from Sigma
phospho-Erk MAPK level, short-term stimulation (phospho-Erk MAPK): increased levels | phospho-Erk MAPK level, 24 hours (phospho-Erk MAPK): high levels | cell density (crystal violet) [1]: significantly reduced cell densities | p21/Waf1 level (p21/Waf1): significantly increased levels | p25 level (p25): significantly increased levels | cell morphology [2]: two populations of cells | phospho-tau level (phospho-tau): increased levels | NOS-3 level [3]: increased levels | Bcl-2 level (Bcl-2): intermediate levels; also recorded: reduced levels | phospho-JNK level, short-term stimulation (phospho-JNK): much lower levels | phospho-JNK level, 24 hour time point (phospho-JNK): no detectable phospho-JNK expression | p53 level (p53): intermediate levels; also recorded: significantly increased levels

NGF: Recombinant human NGF purchased from Sigma
cell morphology [2]: extensive neuritic growth with multipolar fine interconnecting processes and minimal evidence of on-going cell death

PDGF
phospho-Erk MAPK level, short-term stimulation (phospho-Erk MAPK): minimal effect | phospho-Erk MAPK level, 24 hours (phospho-Erk MAPK): high levels | PY-PI3 kinase activity, short-term ([4]; 5-30 minutes, PDGF versus insulin-stimulated cultures): consistently lower | PY-PI3 kinase activity, 24 or 48 hours ([4]; 24 or 48 hours of stimulation): similar | cell morphology [2]: extensive neuritic growth with multipolar fine interconnecting processes and minimal evidence of on-going cell death | Bcl-2 level (Bcl-2): high levels of Bcl-2 | phospho-JNK level, short-term stimulation (phospho-JNK): much lower levels | phospho-JNK level, 24 hour time point (phospho-JNK): no detectable phospho-JNK expression | IRS-1-associated PI3 kinase activity [5]: virtually undetectable | p53 level (p53): no detectable p53
